Our source for the IC50 values is US20130310344A1, “N-ACYLSULFONAMIDE APOPTOSIS PROMOTERS” (ASTRAZENECA AB, priority 2010, published 2013).

Usually IC50 stands for the concentration that inhibits the measured activity by half. Low values mean greater potency in that assay, high ones weaker potency in that assay.

Structures can show the parent of a compound that is named as a salt.

Experiment [1] concerns the target T1, Bcl-2 (Homo sapiens, UniProt P10415).
T1 construct: a c-terminal 6×HIS tagged Bcl-2 (aa 1-204); 6xHis (C)
Briefly: Bcl-2 FP assay (competitive fluorescence polarization binding assay, FITC-Bim BH-3 peptide tracer). The following applies: c-terminal 6×HIS tagged Bcl-2 (aa 1-204), 1.3 nM; 2 nM FITC-Bim peptide tracer. The text has this: (§1) Bcl-xL and Bcl-2 FP binding affinity of compound(s) of Formulae (I), (I-a), (I-b), (I-c), (I-d) and/or (I-e) may be determined using a variety of known methods. One such assay is a sensitive and quantitative in vitro binding assay using fluorescence polarization (“FP”) described by Wang, J.-L.; Zhang, Z-J.; Choksi, S.; Sjam. S.; Lu, Z.; Croce, C. M.; Alnemri, E. S.; Komgold, R.; Huang, Z. Cell permeable Bcl-2 binding peptides: a chemical approach to apoptosis induction in tumor cells. Cancer Res. 2000, 60, 1498-1502).
(§2) Additionally, the binding affinity of compound(s) of Formulae (I), (I-a), (I-b), (I-c), (I-d) and/or (I-e) to Bcl-2 protein in vitro was determined by a competitive binding assay based on fluorescence polarization. For example, fluorescence polarization (“FP”) assays may be developed using a c-terminal 6×HIS tagged Bcl-2 (aa 1-204) and a C-terminal 6×HIS tagged Bcl-XL (aa 1-209). […] Dilutions of either Bcl-2 (1.3 nM) or Bcl-XL (0.8 nM) may be added to serial dilutions of antagonist and incubated for one hour prior to the addition of 2 nM of fluorescent peptide tracer (Anaspec, Fremont, Calif.) in the assay buffer. Final assay buffer conditions may be 20 mM HEPES, pH 7.5, 1 mM DTT, 0.005% Tween-20 and 50 mM NaCl. Samples may be read after 20-minute incubation. Fluorescence polarization values may be plotted as a function of the antagonist concentration.
In general terms: In fluorescence polarisation assays a small probe gives low polarisation when free and higher when bound to something large.

Experiment [2] concerns the target T2, Bcl-XL (Homo sapiens, UniProt Q07817).
T2 construct: a C-terminal 6×HIS tagged Bcl-XL (aa 1-209); 6xHis (C)
Put plainly: Bcl-XL FP assay (competitive fluorescence polarization binding assay, FITC-Bim BH-3 peptide tracer). The following applies: C-terminal 6×HIS tagged Bcl-XL (aa 1-209), 0.8 nM; 2 nM FITC-Bim peptide tracer.
Description: as §1, §2

T1 sequence (P10415 1-204): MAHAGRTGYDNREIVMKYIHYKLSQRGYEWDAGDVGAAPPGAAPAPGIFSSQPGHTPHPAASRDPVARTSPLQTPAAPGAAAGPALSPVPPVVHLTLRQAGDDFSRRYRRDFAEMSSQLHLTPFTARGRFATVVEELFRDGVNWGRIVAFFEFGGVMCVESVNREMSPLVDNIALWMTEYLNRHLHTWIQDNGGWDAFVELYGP
T2 sequence (Q07817 1-209): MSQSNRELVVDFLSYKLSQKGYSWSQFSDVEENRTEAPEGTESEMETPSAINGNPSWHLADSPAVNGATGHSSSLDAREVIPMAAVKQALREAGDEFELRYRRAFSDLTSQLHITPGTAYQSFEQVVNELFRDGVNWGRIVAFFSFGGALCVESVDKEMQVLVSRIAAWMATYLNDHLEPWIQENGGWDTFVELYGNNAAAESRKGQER

For `N[C@@H](c1ccccc1-c1ccc(Cl)cc1)C1CCN(c2ccc(C(=O)NS(=O)(=O)c3ccc(N[C@H](CCN4CCN(CCO)CC4)CSc4ccccc4)c(S(=O)(=O)C(F)(F)F)c3)cc2)CC1` [Example 13, 4-(4-((R)-amino(4′-chlorobiphenyl-2-yl)methyl)piperidin-1-yl)-N-(4-((R)-4-(4-(2-hydroxyethyl)piperazin-1-yl)-1-(phenylthio)butan-2-ylamino)-3-(trifluoromethylsulfonyl)phenylsulfonyl)benzamide, formic acid salt], the values for the IC50 in experiment [1] and in experiment [2] were 16 nM and 15 nM, respectively.

`O=C(NS(=O)(=O)c1ccc(N[C@H](CCN2CCOCC2)CSc2ccccc2)c(S(=O)(=O)C(F)(F)F)c1)c1ccc(N2CCC([C@H](O)c3ccccc3-c3ccc(Cl)cc3)CC2)cc1` [Example 14, 4-(4-((S)-(4′-chlorobiphenyl-2-yl)(hydroxy)methyl)piperidin-1-yl)-N-(4-((R)-4-morpholino-1-(phenylthio)butan-2-ylamino)-3-(trifluoromethylsulfonyl)phenylsulfonyl)benzamide]: the IC50 in experiment [1] amounted to 253 nM; in experiment [2] it was 78 nM.

`O=C(NS(=O)(=O)c1ccc(N[C@H](CCN2CCOCC2)CSc2ccccc2)c(S(=O)(=O)C(F)(F)F)c1)c1ccc(N2CCC([C@@H](O)c3ccccc3-c3ccc(Cl)cc3)CC2)cc1` [Example 15, 4-(4-((R)-(4′-chlorobiphenyl-2-yl)(hydroxy)methyl)piperidin-1-yl)-N-(4-((R)-4-morpholino-1-(phenylthio)butan-2-ylamino)-3-(trifluoromethylsulfonyl)phenylsulfonyl)benzamide]: the IC50 in experiment [1] was 3 nM; in experiment [2] it was 1 nM.

`O=C(NS(=O)(=O)c1ccc(N[C@H](CCN2CCOCC2)CSc2ccccc2)c([N+](=O)[O-])c1)c1ccc(N2CCC([C@@H](O)c3ccccc3-c3ccc(Cl)cc3)CC2)cc1` [Example 16, 4-(4-((R)-(4′-chlorobiphenyl-2-yl)(hydroxy)methyl)piperidin-1-yl)-N-(4-((R)-4-morpholino-1-(phenylthio)butan-2-ylamino)-3-nitrophenylsulfonyl)benzamide]: the 50% inhibitory concentration (IC50) in experiment [1] amounted to 0.8 nM; in experiment [2] it was 1 nM.

On to `CCN(CC)C[C@H]1COCCN1CC[C@H](CSc1ccccc1)Nc1ccc(S(=O)(=O)NC(=O)c2ccc(N3CCC([C@@H](O)c4ccccc4-c4ccc(Cl)cc4)CC3)cc2)cc1S(=O)(=O)C(F)(F)F` [Example 20, 4-(4-((R)-(4′-chlorobiphenyl-2-yl)(hydroxy)methyl)piperidin-1-yl)-N-(4-((R)-4-((S)-3-((diethylamino)methyl)morpholino)-1-(phenylthio)butan-2-ylamino)-3-(trifluoromethylsulfonyl)phenylsulfonyl)benzamide], for which the IC50 in experiment [1] worked out at 0.3 nM; in experiment [2] it was 1 nM.

For the compound `CCN(CC)C[C@@H]1COCCN1CC[C@H](CSc1ccccc1)Nc1ccc(S(=O)(=O)NC(=O)c2ccc(N3CCC([C@@H](O)c4ccccc4-c4ccc(Cl)cc4)CC3)cc2)cc1S(=O)(=O)C(F)(F)F` [Example 21, 4-(4-((R)-(4′-chlorobiphenyl-2-yl)(hydroxy)methyl)piperidin-1-yl)-N-(4-((R)-4-((R)-3-((diethylamino)methyl)morpholino)-1-(phenylthio)butan-2-ylamino)-3-(trifluoromethylsulfonyl)phenylsulfonyl)benzamide], the IC50 in experiment [1] worked out at 0.3 nM; in experiment [2] it was 0.5 nM.

For the compound `O=C(NS(=O)(=O)c1ccc(N[C@H](CCN2CCO[C@@H](CO)C2)CSc2ccccc2)c(S(=O)(=O)C(F)(F)F)c1)c1ccc(N2CCC([C@@H](O)c3ccccc3-c3ccc(Cl)cc3)CC2)cc1` [Example 22, 4-(4-((R)-(4′-chlorobiphenyl-2-yl)(hydroxy)methyl)piperidin-1-yl)-N-(4-((R)-4-((R)-2-(hydroxymethyl)morpholino)-1-(phenylthio)butan-2-ylamino)-3-(trifluoromethylsulfonyl)phenylsulfonyl)benzamide, formic acid salt], the half-inhibitory concentration (IC50) was determined as 0.6 nM in experiment [1] and 3 nM in experiment [2].

Regarding `O=C(NS(=O)(=O)c1ccc(N[C@H](CCN2CCO[C@H](CO)C2)CSc2ccccc2)c(S(=O)(=O)C(F)(F)F)c1)c1ccc(N2CCC([C@@H](O)c3ccccc3-c3ccc(Cl)cc3)CC2)cc1` [Example 23, 4-(4-((R)-(4′-chlorobiphenyl-2-yl)(hydroxy)methyl)piperidin-1-yl)-N-(4-((R)-4-((S)-2-(hydroxymethyl)morpholino)-1-(phenylthio)butan-2-ylamino)-3-(trifluoromethylsulfonyl)phenylsulfonyl)benzamide, formic acid salt], the IC50 in experiment [1] and in experiment [2] was 1 nM in each case.

Consider `CC(C)(C)OP(=O)(O)OCO[C@@H](c1ccccc1-c1ccc(Cl)cc1)C1CCN(c2ccc(C(=O)NS(=O)(=O)c3ccc(N[C@H](CCN4CCOCC4)CSc4ccccc4)c(S(=O)(=O)C(F)(F)F)c3)cc2)CC1` [Example 28, tert-Butyl((R)-(4′-chlorobiphenyl-2-yl)(1-(4-(4-((R)-4-morpholino-1-(phenylthio)butan-2-ylamino)-3-(trifluoromethylsulfonyl)phenylsulfonylcarbamoyl)-phenyl)piperidin-4-yl)methoxy)methyl hydrogen phosphate], for which the results for the IC50 in experiment [1] and in experiment [2] were 4 nM and 2 nM, respectively.

Take `CCOP(=O)(OCC)O[C@@H](c1ccccc1-c1ccc(Cl)cc1)C1CCN(c2ccc(C(=O)NS(=O)(=O)c3ccc(N[C@H](CCN4CCOCC4)CSc4ccccc4)c(S(=O)(=O)C(F)(F)F)c3)cc2)CC1` [Example 29, (R)-(4′-chlorobiphenyl-2-yl)(1-(4-(4-((R)-4-morpholino-1-(phenylthio)butan-2-ylamino)-3-(trifluoromethylsulfonyl)phenylsulfonylcarbamoyl)phenyl)piperidin-4-yl)methyl diethyl phosphate, hydrochloride salt]: the IC50 in experiment [1] was 30 nM; in experiment [2], 12 nM.

For `COP(=O)(O)O[C@@H](c1ccccc1-c1ccc(Cl)cc1)C1CCN(c2ccc(C(=O)NS(=O)(=O)c3ccc(N[C@H](CCN4CCOCC4)CSc4ccccc4)c(S(=O)(=O)C(F)(F)F)c3)cc2)CC1` [Example 30, (R)-(4′-chlorobiphenyl-2-yl)(1-(4-(4-((R)-4-morpholino-1-(phenylthio)butan-2-ylamino)-3-(trifluoromethylsulfonyl)phenylsulfonylcarbamoyl)phenyl)piperidin-4-yl)methyl methyl hydrogen phosphate, hydrochloride salt], the concentration for half-maximal inhibition (IC50) in experiment [1] and in experiment [2] was 1 nM throughout.

`N[C@@H](c1ccccc1-c1ccc(Cl)cc1)C1CCN(c2ccc(C(=O)NS(=O)(=O)c3ccc(N[C@H](CCN4CCOCC4)CSc4ccccc4)c(S(=O)(=O)C(F)(F)F)c3)cc2)CC1` [Example 33, 4-(4-((R)-amino(4′-chlorobiphenyl-2-yl)methyl)piperidin-1-yl)-N-(4-((R)-4-morpholino-1-(phenylthio)butan-2-ylamino)-3-(trifluoromethylsulfonyl)phenylsulfonyl)benzamide, formic acid salt]: the 50% inhibitory concentration (IC50) was found to be 30 nM in experiment [1] and 33 nM in experiment [2].

For the compound `CNCC(=O)N[C@@H](c1ccccc1-c1ccc(Cl)cc1)C1CCN(c2ccc(C(=O)NS(=O)(=O)c3ccc(N[C@H](CCN4CCOCC4)CSc4ccccc4)c(S(=O)(=O)C(F)(F)F)c3)cc2)CC1` [Example 34, 4-(4-((R)-(4′-chlorobiphenyl-2-yl)(2-(methylamino)acetamido)methyl)piperidin-1-yl)-N-(4-((R)-4-morpholino-1-(phenylthio)butan-2-ylamino)-3-(trifluoromethylsulfonyl)phenylsulfonyl)benzamide, hydrochloride salt], the concentration for half-maximal inhibition (IC50) amounted to 27 nM in experiment [1] and 19 nM in experiment [2].

As to `NCC(=O)N[C@@H](c1ccccc1-c1ccc(Cl)cc1)C1CCN(c2ccc(C(=O)NS(=O)(=O)c3ccc(N[C@H](CCN4CCOCC4)CSc4ccccc4)c(S(=O)(=O)C(F)(F)F)c3)cc2)CC1` [Example 35, 4-(4-((R)-(2-aminoacetamido)(4′-chlorobiphenyl-2-yl)methyl)piperidin-1-yl)-N-(4-((R)-4-morpholino-1-(phenylthio)butan-2-ylamino)-3-(trifluoromethylsulfonyl)phenylsulfonyl)benzamide hydrochloride salt], the IC50 in experiment [1] is 38 nM; in experiment [2], 22 nM.

Regarding `CN(C)[C@@H](c1ccccc1-c1ccc(Cl)cc1)C1CCN(c2ccc(C(=O)NS(=O)(=O)c3ccc(N[C@H](CCN4CCOCC4)CSc4ccccc4)c(S(=O)(=O)C(F)(F)F)c3)cc2)CC1` [Example 36, 4-(4-((R)-(4′-chlorobiphenyl-2-yl)(dimethylamino)methyl)piperidin-1-yl)-N-(4-((R)-4-morpholino-1-(phenylthio)butan-2-ylamino)-3-(trifluoromethylsulfonyl)phenylsulfonyl)benzamide, hydrochloride salt], the IC50 in experiment [1] was 24 nM; in experiment [2], 18 nM.
